The results in this text go back to patent US20100015058A1, “RADIOLABELED BBN-RGD HETERODIMERS FOR CANCER TARGETING” (STANFORD UNIVERSITY, priority 2008, published 2010).

One data set has as its system PC-3 tumor cells. It counts as cell-based, human. The procedure: In the cell efflux experiment, PC-3 cells were seeded into 12-well plates at a density of 5×10^5 cells per well for overnight incubation. Cells were rinsed 3 times with PBS and then the appropriate ^18F-labeled peptide tracer was added. The cells were incubated at 37° C. for 2 hr, washed with PBS, and then reincubated with serum-free medium. The cells were washed at different time points (0, 15, 30, 60, 120, 180 min) with PBS and lysed with NaOH-SDS (0.2 M NaOH, 1% SDS). The cell lysate was collected in measurement tubes for counting. Efflux values at different time points were calculated by subtracting retention from 0-min retention, and normalized by dividing the total counts at 0 min.
The cell uptake studies were performed as we have previously described with some modifications (Chen et al., Mol Imaging Biol. (2004) […]; Cai et al., (2006) J. Nuc. Med. 47: 1172-1180, incorporated herein by reference in their entireties). Briefly, PC-3 cells were seeded into 12-well plates at a density of 5×10^5 cells per well and incubated (about 18 kBq/well) with ^68Ga-labeled tracers at 37° C. for 15, 30, 60, and 120 min. Tumor cells were then washed three times with chilled PBS and harvested by trypsinization with 0.25% trypsin/0.02% EDTA (Invitrogen). The cell suspensions were collected and measured in a y counter (Packard, Meriden, Conn.). The cell uptake was expressed as the percent added dose (% AD) after decay correction. Experiments were performed twice with triplicate wells. For efflux studies, ^68Ga-labeled tracers (about 18 kBq/well) were first incubated with PC-3 cells in 12-well plates for 1 h at 37° C. to allow internalization. Then cells were washed twice with PBS, and incubated with cell culture medium for 15, 30, and 60 min. After washing three times with PBS, cells were harvested by trypsinization with 0.25% trypsin/0.02% EDTA. The cell suspensions were collected and measured in a γ counter. Experiments were performed twice with triplicate wells. Data are expressed as percent added dose after decay correction.

The subject of another data set is PC-3 tumor. The experiment in a line: Small-animal PET of PC-3 tumor-bearing mice.
The next data set concerns T47D tumor. The experiment in a line: MicroPET of T47D tumor-bearing mice. It counts as in vivo. Particulars: orthotopic model.
Data set [1] can be described thus: MicroPET blood and normal organ uptake in T47D and MDA-MB-435 tumor-bearing nude mice. Particulars: for tissue uptake at 2 h / tissue uptake at 0.5 h / tissue uptake at 1 h / tissue uptake at 4 h / tissue uptake at 24 h: nude, mouse, iv, total radioactivity. An excerpt: The T47D or MDA-MB435 tumor uptake is expressed as the average of each tracer in four mice, while the normal organ uptake is expressed as the average of each tracer in eight mice (four T47D tumor-bearing mice and four MDA-MB-435 tumor-bearing mice per tracer).

The nature of another data set: in vivo. On the set-up: species or system mice. Conditions: male, athymic nude, mouse, 0.74 MBq, total radioactivity. The procedure:
At 0.5 h and 1 h after injection of the tracer, the tumor-bearing mice were killed and dissected. Blood, tumor, major organs, and tissues were collected and wet-weighed. The radioactivity in the tissue was measured by y counter (Packard). The results are presented as percentage injected dose per gram of tissue (% ID/g). For each mouse, the radioactivity of the tissue samples was calibrated against a known aliquot of the injectate and normalized to a body mass of 20 g. Values were expressed as mean±SD for groups of four animals (n=4 per group).

Where [2] appears, read: blood, Blood uptake, average of eight mice.
Setting [3] is: kidney, Kidney uptake, average of eight mice.
Setting [4] is: liver, Liver uptake, average of eight mice.
Setting [5] is: muscle, Muscle uptake, average of eight mice.

As a reminder, the tissue uptake is the percentage of the injected dose found per gram of tissue.

Excerpt for T47D tumor: The MDA-MB-231, MDA-MB468, BT474, BT-20, T47D, MCF-7 and MDA-MB435 human breast cancer cell lines were all obtained from the American Type Culture Collection (ATCC) and maintained under standard conditions according to ATCC. The MDA-MB435 tumor model was established by orthotopic injections of 5×10^6 cells into the right mammary fat pad of female athymic nude mice. For T47D tumor model establishment, the female nude mice were first subcutaneously implanted with 60-day release 17β-estradiol pellets (Innovative Research of America, Sarasota, Fla.) in the left neck. One day after the estradiol implantation, 1×10^7 T47D cells were orthotopically injected into the right mammary fat pad of the nude mice. The mice were subjected to microPET studies when the tumor volume reached 100-300 mm^3 (2-3 weeks for MDA-MB-435, and 4-5 wk for T47D).
Quantification of tumor and major organ activity accumulation in the microPET scans was realized by measuring the regions of interest (ROIs) that encompassing the entire organ on the coronal images.

With `CSCC[C@H](NC(=O)[C@H](CC(C)C)NC(=O)[C@H](Cc1c[nH]cn1)NC(=O)CNC(=O)[C@@H](NC(=O)[C@H](C)NC(=O)[C@H](Cc1c[nH]c2ccccc12)NC(=O)[C@H](CCC(N)=O)NC(=O)CCCCCNC(=O)CC[C@H](NC(=O)COCCOCCOCCNC(=O)c1ccc([18F])cc1)C(=O)NCCCC[C@@H]1NC(=O)[C@@H](Cc2ccc(O)cc2)NC(=O)[C@H](CC(=O)O)NC(=O)CNC(=O)[C@H](CCCNC(=N)N)NC1=O)C(C)C)C(N)=O` [^18F-FB-PEG3-RGD-BBN], in the data set on PC-3 tumor cells, the efflux ratio result is on record as “about 40%”. Also, in the data set with PC-3 tumor (1 h, Aca-BBN(7-14) 15 mg/kg, n=3), the “decrease of tumor uptake by BBN blocking” value turned out to be 65%. Further, in the data set on PC-3 tumor (1 h, RGD 10 mg/kg and BBN 15 mg/kg, n=3), the “decrease of tumor uptake by RGD and BBN blocking” value stood at 90%. For the same compound, in the data set with PC-3 tumor (1 h, c(RGDyK) 10 mg/kg, n=3), the “decrease of tumor uptake by RGD blocking” value turned out to be 50%. The “blood % ID/g at 30 min relative to that at 2 min p.i.” value with PC-3 tumor (mouse, in vivo) came out at 35%. In addition, in the data set with PC-3 tumor (mouse, in vivo), the “time of peak kidney uptake” value is reported as “about 10 min”. Besides, the values for the T47D tumor uptake in the data set on T47D tumor (0.5 h), in the data set on T47D tumor (1 h) and in the data set on T47D tumor (2 h) were 2.96±0.53 % ID/g, 1.81±0.34 % ID/g and 0.91±0.12 % ID/g, respectively. In data set [1] (average of eight mice, 0.5 h), this compound gave a Liver uptake of 1.13±0.43 % ID/g. The compound also yielded a Kidney uptake in data set [1] (average of eight mice, 2 h) of 0.74±0.19 % ID/g. The tissue uptake at 2 h in data set [1] (female, kidney) turned out to be 0.74 ± 0.19 %ID/g; in data set [1] (blood), 0.18 ± 0.02 %ID/g; in data set [1] (liver) it was 0.23 ± 0.07 %ID/g; in data set [1] (muscle), 0.15 ± 0.05 %ID/g. The tissue uptake at 0.5 h in data set [1] (female, liver) amounted to 1.13 ± 0.43 %ID/g; in data set [1] (blood), 0.78 ± 0.37 %ID/g; in data set [1] (kidney) it was 2.77 ± 0.78 %ID/g; in data set [1] (muscle), 0.81 ± 0.23 %ID/g. In addition, the tissue uptake at 1 h in data set [1] (blood) came out at 0.41 ± 0.11 %ID/g; in data set [1] (kidney), 1.56 ± 0.32 %ID/g; in data set [1] (liver) it was 0.56 ± 0.21 %ID/g; in data set [1] (muscle), 0.33 ± 0.17 %ID/g; in the data set “in vivo” (kidney uptake, biodistribution), 4.87 ± 0.67 %ID/g; in “in vivo” (tumor uptake, biodistribution), 4 ± 0.08 %ID/g. Also, the tissue uptake at 1 h in “in vivo” (uptake values in the blood, heart, liver, spleen, bone, and muscle) was < 2 %ID/g.
Take `CSCC[C@H](NC(=O)[C@H](CC(C)C)NC(=O)[C@H](Cc1c[nH]cn1)NC(=O)CNC(=O)[C@@H](NC(=O)[C@H](C)NC(=O)[C@H](Cc1c[nH]c2ccccc12)NC(=O)[C@H](CCC(N)=O)NC(=O)CCCCCNC(=O)CC[C@H](NC(=S)Nc1ccc(C[C@H]2CN(CC(=O)O)CCN(CC(=O)O)CCN2CC(=O)O)cc1)C(=O)NCCCC[C@@H]1NC(=O)[C@@H](Cc2ccc(O)cc2)NC(=O)[C@H](CC(=O)O)NC(=O)CNC(=O)[C@H](CCCNC(=N)N)NC1=O)C(C)C)C(N)=O` [^64Cu-NOTA-RGD-BBN, metal not drawn]: the T47D tumor uptake is listed as 3.73 ± 0.81 % ID/g in the data set on T47D tumor (0.5 h), 2.33 ± 0.59 % ID/g in the data set on T47D tumor (1 h) and 1.97 ± 0.32 % ID/g in the data set with T47D tumor (2 h). In data set [1] (average of eight mice, 0.5 h), this compound showed a Blood uptake of 1.40 ± 0.34 % ID/g. Further, the Kidney uptake in data set [1] (average of eight mice, 0.5 h) was determined as 5.29 ± 0.58 % ID/g; in data set [1] (average of eight mice, 1 h), 4.32 ± 0.55 % ID/g; in data set [1] (average of eight mice, 2 h), 3.28±0.99 % ID/g. Moreover, the Liver uptake was determined as 4.82 ± 1.34 % ID/g in data set [1] (average of eight mice, 0.5 h); 4.05 ± 1.12 % ID/g in data set [1] (average of eight mice, 1 h); 3.22 ± 0.97 % ID/g in data set [1] (average of eight mice, 2 h). In addition, the Muscle uptake in data set [1] (average of eight mice, 0.5 h) is on record as 0.91 ± 0.27 % ID/g; in data set [1] (average of eight mice, 1 h), 0.75 ± 0.12 % ID/g; in data set [1] (average of eight mice, 2 h), 0.56 ± 0.33 % ID/g. The tissue uptake at 1 h in data set [1] (blood, Blood uptake, average of eight mice, 1 h) was determined as 1.01 ± 0.21 %ID/g. For the same compound, the tissue uptake at 2 h in data set [1] (blood, Blood uptake, average of eight mice, 2 h) was 0.89 ± 0.23 %ID/g. Also, the tissue uptake at 4 h turned out to be 0.54 ± 0.2 %ID/g in data set [1] (setting [2]), 2.95 ± 0.26 %ID/g in data set [1] (setting [3]), 2.76 ± 0.81 %ID/g in data set [1] (setting [4]) and 0.4 ± 0.07 %ID/g in data set [1] (setting [5]). For the same compound, the tissue uptake at 24 h turned out to be 0.36 ± 0.04 %ID/g in data set [1] (setting [2]), 2.1 ± 0.72 %ID/g in data set [1] (setting [3]), 2.24 ± 0.36 %ID/g in data set [1] (setting [4]) and 0.21 ± 0.04 %ID/g in data set [1] (setting [5]).
For `CSCC[C@H](NC(=O)[C@H](CC(C)C)NC(=O)[C@H](Cc1c[nH]cn1)NC(=O)CNC(=O)[C@@H](NC(=O)[C@H](C)NC(=O)[C@H](Cc1c[nH]c2ccccc12)NC(=O)[C@H](CCC(N)=O)NC(=O)CCCCCNC(=O)CC[C@H](NC(=S)Nc1ccc(C[C@H]2CN(CC(=O)O)CCN(CC(=O)O)CCN2CC(=O)O)cc1)C(=O)NCCCC[C@@H]1NC(=O)[C@@H](Cc2ccc(O)cc2)NC(=O)[C@H](CC(=O)O)NC(=O)CNC(=O)[C@H](CCCNC(=N)N)NC1=O)C(C)C)C(N)=O` [^68Ga-NOTA-RGD-BBN, metal not drawn], in the data set on PC-3 tumor cells (PC-3 cells, 60 min efflux, FIG. 14D), the “cell-associated tracer (cell retention)” value was found to be 1.14±0.50 % AD. For the same compound, the “time of peak kidney uptake” value with PC-3 tumor (mouse, in vivo) is reported as “about 10 min”. The Blood uptake in data set [1] (average of eight mice, 0.5 h) worked out at 2.91 ± 0.28 % ID/g; in data set [1] (average of eight mice, 1 h), 1.95 ± 0.47 % ID/g; in data set [1] (average of eight mice, 2 h), 1.06 ± 0.23 % ID/g. Besides, in data set [1] (average of eight mice, 2 h), the Kidney uptake is listed as 1.64±0.40 % ID/g. Further, the Liver uptake in data set [1] (average of eight mice, 2 h) amounted to 1.60 ± 0.09 % ID/g. The tissue uptake at 2 h amounted to 1.64 ± 0.4 %ID/g in data set [1] (female, kidney, Kidney uptake, average of eight mice, 2 h) and 0.78 ± 0.07 %ID/g in data set [1] (muscle, Muscle uptake, average of eight mice, 2 h). For the same compound, the tissue uptake at 0.5 h in data set [1] (female, liver, Liver uptake, average of eight mice, 0.5 h) worked out at 2.68 ± 0.29 %ID/g; in data set [1] (kidney, Kidney uptake, average of eight mice, 0.5 h) it was 4.39 ± 1.05 %ID/g; in data set [1] (muscle, Muscle uptake, average of eight mice, 0.5 h), 1.33 ± 0.28 %ID/g; in “in vivo” (kidney uptake, biodistribution), 8.76 ± 1.83 %ID/g; in “in vivo” (tumor uptake, biodistribution) it was 5.43 ± 0.54 %ID/g. Further, the tissue uptake at 1 h in data set [1] (kidney, Kidney uptake, average of eight mice, 1 h) amounted to 3.96 ± 1.12 %ID/g; in data set [1] (liver, Liver uptake, average of eight mice, 1 h), 2.08 ± 0.43 %ID/g; in data set [1] (muscle, Muscle uptake, average of eight mice, 1 h), 1.18 ± 0.44 %ID/g; in “in vivo” (kidney uptake, biodistribution), 5.58 ± 0.75 %ID/g; in the data set “in vivo” (tumor uptake, biodistribution) it was 4.76 ± 0.46 %ID/g.
